Experimental data taken from patent US10383848B2, “Indole-based therapeutics” (Creighton University, priority 2016, dated 2019).
≈ marks a conversion by molar mass, not a printed value. Where two headings read alike, the source gives them in different places.

Assays:
M. abscessus ATCC 19977 = experiment: MIC, resazurin microtiter assay; type: cell-based; settings: Mueller Hinton II; for MIC: Mycobacteroides abscessus, ATCC19977, read-out: MIC M. abscessus ATCC 19977
M. abscessus DCI #21 = experiment: MIC, resazurin microtiter assay; type: cell-based; settings: Mueller Hinton II; for MIC: Mycobacteroides abscessus, read-out: MIC M. abscessus DCI #21
[1] = tested on: M. massiliense CIP 108297; experiment: MIC, resazurin microtiter assay; type: cell-based; settings: for MIC M. massiliense CIP 108297: Mueller Hinton II; for MIC: Mycobacteroides abscessus, CIP108297, Mueller Hinton II, read-out: MIC M. massiliense CIP 108297
M. massiliense CRM 0019 = experiment: MIC, resazurin microtiter assay; type: cell-based; settings: for MIC M. massiliense CRM 0019: Mueller Hinton II; for MIC: Mycobacteroides abscessus, CRM0019, Mueller Hinton II, read-out: MIC M. massiliense CRM 0019
M. bolletii ATCC 14472 = experiment: MIC, resazurin microtiter assay; type: cell-based; settings: for MIC M. bolletii ATCC 14472: Mueller Hinton II; for MIC: Mycobacteroides abscessus, ATCC14472, Mueller Hinton II, read-out: MIC M. bolletii ATCC 14472
M. chelonae ATCC 35752 = experiment: MIC, resazurin microtiter assay; type: cell-based; settings: for MIC M. chelonae ATCC 35752: Mueller Hinton II; for MIC: Mycobacteroides chelonae, ATCC35752, Mueller Hinton II, read-out: MIC M. chelonae ATCC 35752
M. smegmatis mc^2155 = experiment: MIC, resazurin microtiter assay; type: cell-based; settings: for MIC M. smeg. mc^2155: 7H9-ADC-0.05% Tween 80; for MIC: Mycolicibacterium smegmatis, MC^2155, 7H9-ADC-0.05% Tween 80, read-out: MIC M. smeg. mc^2155
M. avium 104 = experiment: MIC, resazurin microtiter assay; type: cell-based; settings: Mueller Hinton II; for MIC: Mycobacterium avium, 104, read-out: MIC M. avium 104
M. intracellulare 1956 = experiment: MIC, resazurin microtiter assay; type: cell-based; settings: Mueller Hinton II; for MIC: read-out: MIC M. avium Intracellulare 1956
M. xenopi WT = experiment: MIC, resazurin microtiter assay; type: cell-based; settings: Mueller Hinton II; for MIC: Mycobacterium xenopi, read-out: MIC M. xenopi WT
P. aeruginosa PAO-1 = experiment: MIC, resazurin microtiter assay; type: cell-based, Pseudomonas aeruginosa; settings: Mueller Hinton II; for MIC: Pseudomonas aeruginosa, PAO1, read-out: MIC P. aeruginosa PAO-1
S. aureus ATCC25923 = experiment: MIC, resazurin microtiter assay; type: cell-based; settings: Staphylococcus aureus, ATCC25923; Mueller Hinton II; read-out: MIC S. aureus ATCC25923
mycobacteria = experiment: organism not typed; type: cell-based; settings: lowest concentration reducing CFU by 90% relative to the inoculum; strain not stated; read-out: MBC90
M. abscessus 103 [2] = experiment: MIC/MBC by microbroth dilution (MH or 7H9 broth); type: cell-based, M. abscessus subsp. bolletii; settings: Mycobacteroides abscessus, 103; for MBC: 7H9 broth, read-out: MBC99 M. abscessus subsp. bolletii 103
M. abscessus 1513 = experiment: MIC/MBC by microbroth dilution (MH or 7H9 broth); type: cell-based, M. abscessus subsp. abscessus; settings: Mycobacteroides abscessus, 1513; for MBC: 7H9 broth, read-out: MBC99 M. abscessus subsp. abscessus 1513
M. abscessus 103 [3] = experiment: Acute SCID mouse infection efficacy model; settings: SCID mice i.v. infected with M. abscessus 103; compounds 300 mg/kg PO in 20% cyclodextrin, AMI 150 mg/kg SQ, once daily 8 days
[4] = tested on: M. tuberculosis H37Rv mc^26206; experiment: microbe, parasite or virus in culture; type: cell-based
[5] = read-out: MIC M. abscessus 103, 7H9 Broth
[6] = read-out: MIC M. abscessus 103, MH Broth
[7] = read-out: MIC M. abscessus 1513, 7H9 Broth
[8] = read-out: MIC M. abscessus 1513, MH Broth

| Compound | MIC M. abscessus ATCC 19977 (M. abscessus ATCC 19977) | MIC M. abscessus DCI #21 (M. abscessus DCI #21) | MIC M. massiliense CIP 108297 [1] | MIC M. massiliense CRM 0019 (M. massiliense CRM 0019) | MIC M. bolletii ATCC 14472 (M. bolletii ATCC 14472) | MIC M. chelonae ATCC 35752 (M. chelonae ATCC 35752) | MIC M. smeg. mc^2155 (M. smegmatis mc^2155) | MIC P. aeruginosa PAO-1 (P. aeruginosa PAO-1) | MIC (P. aeruginosa PAO-1) | MIC (S. aureus ATCC25923) | MBC (mycobacteria) | MBC (M. abscessus 103 [2]) | MIC (M. abscessus 103 [2]; [5]) | MIC (M. abscessus 103 [2]; [6]) | MBC (M. abscessus 1513) | MIC (M. abscessus 1513; [7]) | MIC (M. abscessus 1513; [8]) | MIC (M. avium 104) | MIC (M. intracellulare 1956) | MIC (M. xenopi WT) | other results |
| --- | --- | --- | --- | --- | --- | --- | --- | --- | --- | --- | --- | --- | --- | --- | --- | --- | --- | --- | --- | --- | --- |
| Cc1cc(C)c2cc(C(=O)NC3CCC(C)CC3)[nH]c2c1 (centres unmarked) [Compound 30, N-4-methylcyclohexyl-4,6-dimethyl-1H-indole-2-carboxamide] | ≤0.06 µg/mL | ≤0.06 µg/mL | ≤0.06 µg/mL | ≤0.06 µg/mL | ≤0.06 µg/mL | ≤0.06 µg/mL | >20 µg/mL | inactive | > 160 µg/mL | > 160 µg/mL | 0.03 µg/mL (≈ 0.105 µM) | – | – | – | – | – | – | – | – | – | MIC M. avium 104 (M. avium 104): >32 µg/mL; MIC M. avium Intracellulare 1956 (M. intracellulare 1956): >32 µg/mL; MIC M. xenopi WT (M. xenopi WT): 0.5 to 1 µg/mL |
| CC[C@H]1OC(=O)[C@H](C)[C@@H](O[C@H]2C[C@@](C)(OC)[C@@H](O)[C@H](C)O2)[C@H](C)[C@@H](O[C@@H]2O[C@H](C)C[C@H](N(C)C)[C@H]2O)[C@](C)(OC)C[C@@H](C)C(=O)[C@H](C)[C@@H](O)[C@]1(C)O [clarithromycin, reference compound] | – | – | – | – | – | – | – | – | – | – | – | > 64 µg/mL | 16 µg/mL (≈ 21.4 µM) | 4 µg/mL (≈ 5.35 µM) | > 64 µg/mL | > 64 µg/mL | > 64 µg/mL | – | – | – | – |
| NCC[C@H](O)C(=O)N[C@@H]1C[C@H](N)[C@@H](O[C@H]2O[C@H](CN)[C@@H](O)[C@H](O)[C@H]2O)[C@H](O)[C@H]1O[C@H]1O[C@H](CO)[C@@H](O)[C@H](N)[C@H]1O [amikacin, reference compound] | – | – | – | – | – | – | – | – | – | – | – | > 64 µg/mL | 8 µg/mL (≈ 13.7 µM) | 4 µg/mL (≈ 6.83 µM) | > 64 µg/mL | > 64 µg/mL | > 64 µg/mL | – | – | – | log10 CFU liver counts on day 12 (M. abscessus 103 [3]): 4.03±0.62 log10 CFU; log10 CFU lung counts on day 12 (M. abscessus 103 [3]): 3.52±0.22 log10 CFU; log10 CFU spleen counts on day 12 (M. abscessus 103 [3]): 3.12±0.30 log10 CFU |
| Cc1cc(C)c2cc(C(=O)NC3CCCCCC3)[nH]c2c1 [Compound 26, N-cycloheptyl-4,6-dimethyl-1H-indole-2-carboxamide] | – | – | – | – | – | – | – | inactive | > 160 µg/mL | > 160 µg/mL | 0.015 µg/mL (≈ 0.0527 µM) | – | – | – | – | – | – | 2 µg/mL (≈ 7.03 µM) | 4 µg/mL (≈ 14.1 µM) | 0.06 to 0.12 µg/mL (≈ 0.211 to 0.422 µM) | MIC (M. abscessus ATCC 19977): ≤ 0.06 µg/mL; MIC (M. abscessus DCI #21): ≤ 0.06 µg/mL; MIC [1]: ≤ 0.06 µg/mL; MIC (M. massiliense CRM 0019): ≤ 0.06 µg/mL; MIC (M. bolletii ATCC 14472): ≤ 0.06 µg/mL; MIC (M. chelonae ATCC 35752): ≤ 0.06 µg/mL; MIC (M. smegmatis mc^2155): 0.625 µg/mL (≈ 2.2 µM) |
| CC1CCC(NC(=O)c2cc3ccccc3[nH]2)CC1 (centres unmarked) [Compound 15] | >32 µg/mL | >32 µg/mL | 16 µg/mL (≈ 62.4 µM) | 16 µg/mL (≈ 62.4 µM) | 16 µg/mL (≈ 62.4 µM) | 16 µg/mL (≈ 62.4 µM) | 12.5 µg/mL (≈ 48.8 µM) | – | – | – | – | – | – | – | – | – | – | > 32 µg/mL | > 32 µg/mL | 16 µg/mL (≈ 62.4 µM) | MIC M. tb H37 Rv (mc2-6206) [4]: 5 µg/mL (≈ 19.5 µM) |
| CC(NC(=O)c1cc2ccccc2[nH]1)C12CC3CC(CC(C3)C1)C2 (centres unmarked) [Compound 7, N-(1-(1-adamantyl)ethyl)-1H-indole-2-carboxamide] | – | – | – | – | – | – | – | – | – | – | – | – | – | – | – | – | – | > 32 µg/mL | 32 µg/mL (≈ 99.2 µM) | 8 µg/mL (≈ 24.8 µM) | MIC (M. abscessus ATCC 19977): 16 µg/mL (≈ 49.6 µM); MIC (M. abscessus DCI #21): 16 µg/mL (≈ 49.6 µM); MIC [1]: 8 µg/mL (≈ 24.8 µM); MIC (M. massiliense CRM 0019): 8 µg/mL (≈ 24.8 µM); MIC (M. bolletii ATCC 14472): 16 µg/mL (≈ 49.6 µM); MIC (M. chelonae ATCC 35752): 2 µg/mL (≈ 6.2 µM); MIC ([4]; Mycobacterium tuberculosis, H37RV, read-out: MIC M. tb H37 Rv (mc2-6206)): > 5 µg/mL; MIC (M. smegmatis mc^2155): > 20 µg/mL |
